# Laboratory results taken from paper PMC2228184 (British Journal of Cancer, 1997).
# Like-named read-outs stand apart in the source and are kept apart here.
# Tests used:
# [1] = clinical; conditions: human, in vivo
# From the text: Topoisomerases are essential nuclear enzymes that alter the topology of DNA during DNA metabolism by cleavage of DNA strands, strand passage and religation (Wang, 1985). Two major topoisomerases, types I and H, have been identified in all mammalian cells, and induce single- and double-strand breaks respectively. […] They have different sites of binding DNA and play a different role in the cell cycle. Received 15 November 1996 Revised 19 February 1997 Accepted 10April 1997 Correspondence to: VMM Herben, Slotervaart Hospital, Department of Pharmacy and Pharmacology, Louwesweg 6, 1066 EC Amsterdam, The Netherlands Topotecan (Hycamtin), a semisynthetic water-soluble derivative of camptothecin, was the first topoisomerase I-targeting drug to undergo clinical testing since the discontinuation of the clinical development of sodium camptothecin in the early 1970s. […] In view of topotecan's unique mechanism of action and important anti-tumour effects as single agent, recent studies have focused on combination therapies with other effective anti- cancer agents. The combination of topoisomerase I inhibitors with topoiso- merase II poisons is in theory an attractive strategy. As resistance to inhibition of one class of topoisomerase enzymes is accompa- nied with an elevated sensitivity to the other class of topoiso- merase inhibitors in vitro (Tan et al, 1989; Sugimoto et al, 1990), a combined administration regimen of inhibitors of both topoiso- merases could effectively kill tumour cells. […] The recommended dose for this schedule is 1.5 mg m-2 day-1 (Rowinsky et al, 1991; Verweij et al, 1993). […] Other eligibility criteria included a Zubrod-ECOG-WHO performance status < 2, anticipated life expectancy of 2 3 months and age 2 18 years. Previous anti-cancer chemotherapy had to be discontinued for at least 4 weeks before entry into the study or 6 weeks in cases of pretreatment with a nitrosourea or mitomycin C. All patients had acceptable bone marrow function white blood cell (WBC) ? […] The study protocol was approved by the Medical Ethics Committee of the hospital, and all patients gave written informed consent. Treatment plan and study design Topotecan (SmithKline Beecham Pharmaceuticals, King of Prussia, PA, USA) was supplied by the National Cancer Institute as a lyophilized light yellow powder in vials containing 5 mg of topotecan (as the free base), 60 mg of mannitol, 25 mg of tartaric acid and 2 M hydrochloric acid and/or 0.05 M sodium hydroxide for pH adjustment to 3.0. The content of each vial was reconsti- tuted with 2 ml of sterile water for injection, USP, yielding a 2.5 mg ml-1 solution of topotecan. The appropriate dosage of the drug was diluted in 50 or 100 ml of 0.9% sodium chloride and was administered intravenously over 30 min by a syringe pump. […] The regimen was intended to be repeated every 4 weeks. This could be changed during the study to either shorter or longer intervals depending on bone marrow recovery. Doses were escalated in an alternating way according to the scheme in Table 1. […] Treatment cycles were to be repeated at 3-week intervals. Patients were scheduled to receive at least two courses.
# [2] = tested on: patients with advanced solid tumours; conditions: human, in vivo
# From the text: (§1) Topoisomerases are essential nuclear enzymes that alter the topology of DNA during DNA metabolism by cleavage of DNA strands, strand passage and religation (Wang, 1985). Two major topoisomerases, types I and H, have been identified in all mammalian cells, and induce single- and double-strand breaks respectively. […] They have different sites of binding DNA and play a different role in the cell cycle. Received 15 November 1996 Revised 19 February 1997 Accepted 10April 1997 Correspondence to: VMM Herben, Slotervaart Hospital, Department of Pharmacy and Pharmacology, Louwesweg 6, 1066 EC Amsterdam, The Netherlands Topotecan (Hycamtin), a semisynthetic water-soluble derivative of camptothecin, was the first topoisomerase I-targeting drug to undergo clinical testing since the discontinuation of the clinical development of sodium camptothecin in the early 1970s. […] In view of topotecan's unique mechanism of action and important anti-tumour effects as single agent, recent studies have focused on combination therapies with other effective anti- cancer agents. The combination of topoisomerase I inhibitors with topoiso- merase II poisons is in theory an attractive strategy. As resistance to inhibition of one class of topoisomerase enzymes is accompa- nied with an elevated sensitivity to the other class of topoiso- merase inhibitors in vitro (Tan et al, 1989; Sugimoto et al, 1990), a combined administration regimen of inhibitors of both topoiso- merases could effectively kill tumour cells. […] The recommended dose for this schedule is 1.5 mg m-2 day-1 (Rowinsky et al, 1991; Verweij et al, 1993). […] Other eligibility criteria included a Zubrod-ECOG-WHO performance status < 2, anticipated life expectancy of 2 3 months and age 2 18 years. Previous anti-cancer chemotherapy had to be discontinued for at least 4 weeks before entry into the study or 6 weeks in cases of pretreatment with a nitrosourea or mitomycin C. All patients had acceptable bone marrow function white blood cell (WBC) ? […]
# [3] = tested on: patients with advanced solid tumours; conditions: both, human, in vivo
# Experimental: 0.3 h. […] 2.7 1 h-1 m-2 with a steady-state volume of distribution of 36.7 ? 6.2 I m-2. […] 1.0 h after infusion. […] 0.54 and 1.23 ? […] 1.2 and 2.3 ? 1.0 h after ingestion of 20 and 40 mg respectively. […] Other eligibility criteria included a Zubrod-ECOG-WHO performance status < 2, anticipated life expectancy of 2 3 months and age 2 18 years. Previous anti-cancer chemotherapy had to be discontinued for at least 4 weeks before entry into the study or 6 weeks in cases of pretreatment with a nitrosourea or mitomycin C. All patients had acceptable bone marrow function white blood cell (WBC) ? 4 x 10^9 1-1 and platelets 2 100 x 109 11; normal hepatic function, serum bilirubin < 1.5 mg dl-' (25 pmol 1-1) and other liver function tests < twice the normal upper limit or < five times when related to liver metastases, prothrombin or thrombotest within normal limits; normal renal function, serum creatinine < 1.4 mg dl-1 (120 gmol 1-1). The study protocol was approved by the Medical Ethics Committee of the hospital, and all patients gave written informed consent. Treatment plan and study design Topotecan (SmithKline Beecham Pharmaceuticals, King of Prussia, PA, USA) was supplied by the National Cancer Institute as a lyophilized light yellow powder in vials containing 5 mg of topotecan (as the free base), 60 mg of mannitol, 25 mg of tartaric acid and 2 M hydrochloric acid and/or 0.05 M sodium hydroxide for pH adjustment to 3.0. The content of each vial was reconsti- tuted with 2 ml of sterile water for injection, USP, yielding a 2.5 mg ml-1 solution of topotecan. The appropriate dosage of the drug was diluted in 50 or 100 ml of 0.9% sodium chloride and was administered intravenously over 30 min by a syringe pump.
# [4] = tested on: patients; conditions: cited from earlier work
# [5] = Pharmacokinetics of N-desmethyltopotecan after 30-min infusion of topotecan; assay type: in vivo, human
# From the text: as §1
# [6] = design: method as in Johnson and Wood, personal communication; conditions: ref Johnson and Wood, personal communication; cited from earlier work
# [7] = Plasma pharmacokinetics of etoposide after oral administration (HPLC); conditions: human
# From the text: Topoisomerases are essential nuclear enzymes that alter the topology of DNA during DNA metabolism by cleavage of DNA strands, strand passage and religation (Wang, 1985). Two major topoisomerases, types I and H, have been identified in all mammalian cells, and induce single- and double-strand breaks respectively. […] They have different sites of binding DNA and play a different role in the cell cycle. Received 15 November 1996 Revised 19 February 1997 Accepted 10April 1997 Correspondence to: VMM Herben, Slotervaart Hospital, Department of Pharmacy and Pharmacology, Louwesweg 6, 1066 EC Amsterdam, The Netherlands Topotecan (Hycamtin), a semisynthetic water-soluble derivative of camptothecin, was the first topoisomerase I-targeting drug to undergo clinical testing since the discontinuation of the clinical development of sodium camptothecin in the early 1970s. […] In view of topotecan's unique mechanism of action and important anti-tumour effects as single agent, recent studies have focused on combination therapies with other effective anti- cancer agents. The combination of topoisomerase I inhibitors with topoiso- merase II poisons is in theory an attractive strategy. As resistance to inhibition of one class of topoisomerase enzymes is accompa- nied with an elevated sensitivity to the other class of topoiso- merase inhibitors in vitro (Tan et al, 1989; Sugimoto et al, 1990), a combined administration regimen of inhibitors of both topoiso- merases could effectively kill tumour cells. […] The recommended dose for this schedule is 1.5 mg m-2 day-1 (Rowinsky et al, 1991; Verweij et al, 1993). […] Other eligibility criteria included a Zubrod-ECOG-WHO performance status < 2, anticipated life expectancy of 2 3 months and age 2 18 years. Previous anti-cancer chemotherapy had to be discontinued for at least 4 weeks before entry into the study or 6 weeks in cases of pretreatment with a nitrosourea or mitomycin C. All patients had acceptable bone marrow function white blood cell (WBC) ? […] The study protocol was approved by the Medical Ethics Committee of the hospital, and all patients gave written informed consent. Treatment plan and study design Topotecan (SmithKline Beecham Pharmaceuticals, King of Prussia, PA, USA) was supplied by the National Cancer Institute as a lyophilized light yellow powder in vials containing 5 mg of topotecan (as the free base), 60 mg of mannitol, 25 mg of tartaric acid and 2 M hydrochloric acid and/or 0.05 M sodium hydroxide for pH adjustment to 3.0. The content of each vial was reconsti- tuted with 2 ml of sterile water for injection, USP, yielding a 2.5 mg ml-1 solution of topotecan. The appropriate dosage of the drug was diluted in 50 or 100 ml of 0.9% sodium chloride and was administered intravenously over 30 min by a syringe pump. […]
# [8] = ref Clark et al, 1989; cited from earlier work
compound,measurement,setting,value
CC[C@@]1(O)C(=O)OCc2c1cc1n(c2=O)Cc2cc3c(CN(C)C)c(O)ccc3nc2-1 [topotecan],half-life,"[1]; both, iv",2.1 ± 0.3 h
same,alpha half-life,[1],3.8 ? 3.2 min
same,CL,[1]; 0.5 mg,14.9 ? 1.8 l h-1 m-2
same,Vss,[1]; 0.5 mg,34.0 ? 2.6 l m-2
same,t1/2,[1]; 0.5 mg,1.9 ? 0.1 h
same,CL,[1]; 1 mg,13.4?2.6 l h-1 m-2
same,Vss,[1]; 1 mg,36.4?5.2 l m-2
same,t1/2,[1]; 1 mg,2.2?0.3 h
same,CL,[1]; 1.25 mg,15.6 ? 4.0 l h-1 m-2
same,Vss,[1]; 1.25 mg,33.7 ? 6.7 l m-2
same,percentage of the administered dose recovered in the urine,[1]; 24 h,41 ? 10%
same,"percentage of the administered dose recovered in the urine, range",[1]; 24 h,25-7 1
same,terminal (beta) half-life,[1]; iv,2.1 ? 0.3 h
same,dose associated with a 50% decrease in ANC (D50),[2]; both,0.6 mg m-2 day-1
same,"dose that could be given in combination, % of the single-agent dosage",[3],67-83%
same,recommended dose for phase II clinical trials,[3],1.0 mg m-2
same,"recommended dose, single agent","[4]; 30-min daily times five infusion every 3 weeks, ref Rowinsky et al, 1991, Verweij et al, 1993",1.5 mg m-2 day-1
same,AUC50 (AUC associated with 50% decrease in ANC),"[4]; preceding single-agent phase I trial, Figure 2, ref Van Warmerdam et al, 1995",79.2 h/nmol/L
same,"recommended dose, single agent","[4]; previously treated patients, ref Saltz et al (1993)",1.25 mg m-2 daily
same,"recommended dose, single agent","[4]; previously untreated patients, ref Saltz et al (1993)",1.5 mg m-2 daily
same,courses resulting in grades III or IV leucocytopenia and neutropenia,"[4]; single agent 1.5 mg m-2 day-1, ref Rowinsky et al, 1991, Verweij et al, 1993",approximately 75%
CC[C@@]1(O)C(=O)OCc2c1cc1n(c2=O)Cc2cc3c(CNC)c(O)ccc3nc2-1 [N-desmethyltopotecan],additional excretion in the urine as the metabolite,"[5]; 24 to 48 hours after the fifth daily infusion, four patients",0.4%
same,metabolite-to-topotecan ratio of maximal plasma levels,[5]; all dose levels,0.5%
same,metabolite-to-topotecan AUC(t) ratio,"[5]; all dose levels, up to 6 h post-infusion",0.012
same,relation of AUC(t) to myelosuppression,[2],not related
same,anti-tumour activity compared with the parent compound,[6],slightly less anti-tumour activity
COc1cc([C@@H]2c3cc4c(cc3[C@@H](O[C@@H]3O[C@@H]5CO[C@@H](C)O[C@H]5[C@H](O)[C@H]3O)[C@H]3COC(=O)[C@H]23)OCO4)cc(OC)c1O [etoposide],Cmax,[7]; 20 mg,750 ± 540 nM
same,Tmax,[7]; 20 mg,2.4 ± 1.2 h
same,Cmax,[7]; 40 mg,1230 ± 570 nM
same,Tmax,[7]; 40 mg,2.3 ± 1 h
same,"correlation of pharmacokinetics (AUC, Cmax) or total dose with haematological toxicity",[2],did not yield any significant relationship
same,recommended dose for phase II clinical trials,[3],40 mg bid
same,peak plasma concentrations associated with significant toxicity,[8],above 17 μmol l-1
